Data on twelve molecules can be found in ChEMBL document CHEMBL5126512, “Current status of carbazole hybrids as anticancer agents” (Eur J Med Chem, 2022).

The test system of data set [1] is MCF7. Put plainly: Antiproliferative activity against human MCF7 cells assessed as cell growth inhibition measured after 72 hrs by MTT assay. It counts as functional, cell-based. The settings on record: MCF7, 72 h. (In general: Tetrazolium assays rely on reduction of a dye to a coloured formazan, in cell work by metabolically active cells.)
The subject of data set [2] is MDA-MB-231. The data set is described as follows: Antiproliferative activity against human MDA-MB-231 cells assessed as cell growth inhibition measured after 72 hrs by MTT assay. It counts as functional, cell-based. The settings on record: MDA-MB-231, 72 h.
The next data set deals with Jurkat. The data set is described as follows: Antiproliferative activity against human Jurkat cells assessed as cell growth inhibition measured after 48 hrs by MTT assay. It counts as functional, cell-based.
In data set [3] the target is Urokinase-type plasminogen activator (Homo sapiens, UniProt P00749). The data set is described as follows: Inhibition of urokinase plasminogen activator in human MCF7 cells measured after 24 hrs by ELISA method. In kind it is cell-based.
The test system of data set [4] is MCF7. Put plainly: Anticancer activity against human MCF7 cells assessed as cell growth inhibition measured after 24 hrs by MTT assay. In kind it is functional, cell-based. The settings on record: MCF7, 24 h.
The nature of data set [5]: Cytotoxicity against human HFB4 cells assessed as cell growth inhibition measured after 24 hrs by MTT assay. It counts as toxicity, cell-based.
In another data set the test system is COLO 205. The data set is described as follows: Antiproliferative activity against human COLO 205 cells assessed as cell growth inhibition by MTT assay. In kind it is functional, cell-based.
Data set [6] has as its system MCF7. The data set is described as follows: Antiproliferative activity against human MCF7 cells assessed as cell growth inhibition by MTT assay. It counts as functional, cell-based.
Data set [7] concerns A549. The data set is described as follows: Antiproliferative activity against human A549 cells assessed as cell growth inhibition by MTT assay. In kind it is functional, cell-based.
In a further data set the test system is HT-29. Put plainly: Antiproliferative activity against human HT-29 cells assessed as cell growth inhibition measured after 48 hrs by MTT assay. In kind it is functional, cell-based. The settings on record: HT-29, 48 h.
In data set [8] the test system is HCT-116. The data set is described as follows: Antiproliferative activity against human HCT-116 cells assessed as cell growth inhibition measured after 48 hrs by MTT assay. In kind it is functional, cell-based. The settings on record: HCT-116, 48 h.
In data set [9] the test system is MCF7. The data set is described as follows: Cytotoxicity against human MCF7 cells assessed as cell growth inhibition by MTT assay. In kind it is functional, cell-based.
Another data set deals with HEp-2. The data set is described as follows: Cytotoxicity against human HEp-2 cells assessed as cell growth inhibition by MTT assay. In kind it is functional, cell-based.
The test system of data set [10] is HeLa. The data set is described as follows: Cytotoxicity against human HeLa cells assessed as cell growth inhibition by MTT assay. It counts as functional, cell-based.
In data set [11] the test system is MDA-MB-231. Put plainly: Antiproliferative activity against human MDA-MB-231 cells assessed as cell growth inhibition by MTT assay. In kind it is functional, cell-based.
For data set [12], the system named is HCT-116. Put plainly: Antiproliferative activity against human HCT-116 cells assessed as cell growth inhibition by MTT assay. It counts as functional, cell-based.
The next data set relates to K562. The data set is described as follows: Antiproliferative activity against human K562 cells assessed as cell growth inhibition by MTT assay. It counts as functional, cell-based.
A further data set has as its system SK-OV-3. Put plainly: Antiproliferative activity against human SK-OV-3 cells assessed as cell growth inhibition by MTT assay. It counts as functional, cell-based.
In the next data set the test system is SMMC-7721. The data set is described as follows: Cytotoxicity against human SMMC-7721 cells assessed as cell growth inhibition measured after 48 hrs by MTT assay. It counts as functional, cell-based. The settings on record: SMMC-7721, 48 h.
The subject of the next data set is Hep 3B2. The data set is described as follows: Cytotoxicity against human Hep3B cells assessed as cell growth inhibition measured after 48 hrs by MTT assay. In kind it is functional, cell-based.
Data set [13] relates to HeLa. Put plainly: Cytotoxicity against human HeLa cells assessed as cell growth inhibition measured after 72 hrs by MTT assay. In kind it is functional, cell-based. The settings on record: pooled result: one value given for 3 cell lines, strains, targets or settings.
The subject of data set [14] is A549. The data set is described as follows: Antiproliferative activity against human A549 cells assessed as cell growth inhibition measured after 72 hrs by SRB assay. It counts as functional, cell-based. The settings on record: A549, 72 h. For orientation: The SRB assay estimates cell density from bound dye.
A further data set concerns HepG2. Put plainly: Cytotoxicity against human HepG2 cells assessed as cell growth inhibition measured after 72 hrs by MTT assay. It counts as functional, cell-based. The settings on record: HepG2, 72 h.
The subject of another data set is A498. Put plainly: Antiproliferative activity against human A498 cells assessed as cell growth inhibition measured after 72 hrs by SRB assay. In kind it is functional, cell-based. The settings on record: A498, 72 h.
Data set [15] has as its system MCF7. Put plainly: Cytotoxicity against human MCF7 cells assessed as cell growth inhibition measured after 72 hrs by MTT assay. In kind it is functional, cell-based. The settings on record: MCF7, 72 h.
For data set [16], the system named is MDA-MB-231. Put plainly: Cytotoxicity against human MDA-MB-231 cells assessed as cell growth inhibition measured after 72 hrs by MTT assay. It counts as functional, cell-based. The settings on record: MDA-MB-231, 72 h.

A word on the IC50: it is the concentration that inhibits the measured activity by half.

With `C[N+](C)(C)CCN1CCN(CCCCCCn2c3ccccc3c3cc(Cl)ccc32)CC1`, the IC50 in the data set with MCF7 [1] and with MDA-MB-231 [2] was 4.4 µM throughout.
For the molecule `O=C(Cn1c2ccccc2c2c3oc(=O)cc(COC(=O)CCCc4ccc(N(CCCl)CCCl)cc4)c3ccc21)NCCC[P+](c1ccccc1)(c1ccccc1)c1ccccc1`, the IC50 with Jurkat was found to be 20 µM.
With `c1cncc(C2c3[nH]c4ccccc4c3C(c3cccnc3)c3[nH]c4ccccc4c32)c1` (stereo unspecified), the half-maximal inhibitory concentration (IC50) in [3] worked out at 2.7 µM; in the data set with MCF7 [4], 4 µM. For the same molecule, the IC50 at 24 h in data set [5] is 80 µM.
With `COc1ccc2[nH]c3c(C)cc(-c4cc(-c5ccc(F)cc5)nc(N)n4)c(C)c3c2c1`, the half-maximal inhibitory concentration (IC50) in the data set on COLO 205, with MCF7 [6] and in the data set on A549 [7] was 0.1 µM in each case.
In the case of `COc1ccc2c(c1)[nH]c1cc(O)c(CN3CCCCC3)cc12`, the concentration for half-maximal inhibition (IC50) in the data set with HT-29 and in the data set with HCT-116 [8] was 18 µM each time.
For the molecule `O=C1c2ccsc2N=C2c3[nH]c4ccc(Br)cc4c3CCC12` (stereo unspecified), the IC50 in the data set on MCF7 [9], in the data set with HEp-2 and in the data set with HeLa [10] was 5.75 µM in each case.
Take `COc1ccc2[nH]c3c(C)cc(-c4cc(-c5ccc(C(F)(F)F)cc5)nc(N)n4)c(C)c3c2c1`: the half-inhibitory concentration (IC50) in the data set with COLO 205, in the data set with MCF7 [6] and in the data set on A549 [7] was 0.1 µM throughout.
`O=Cc1c[nH]c2c1ccc1c3ccccc3n(CCCC(=O)NCCn3ccn4c5ccc(C(F)(F)F)cc5cc34)c12`: the 50% inhibitory concentration (IC50) in the data set on MDA-MB-231 [11], with MCF7 [6], with HCT-116 [12], with K562 and in the data set on SK-OV-3 was 9 µM in each case.
`O=Cc1c[nH]c2c1ccc1c3ccccc3n(CCCC(=O)NCCn3ccn4c5ccccc5cc34)c12`: the IC50 with MDA-MB-231 [11], with MCF7 [6], with HCT-116 [12], in the data set on K562 and with SK-OV-3 was 9 µM in each case.
As for `O=C1c2ccsc2N=C2c3[nH]c4ccc(Cl)cc4c3CCC12` (stereo unspecified), the IC50 with MCF7 [9], in the data set with HEp-2 and in the data set with HeLa [10] was 3.6 µM each time.
`COc1cccc2c1C(=O)c1c(O)c3c(c(O)c1C2=O)C[C@@](O)(C(=O)CO)C[C@@H]3O[C@H]1C[C@H](N)[C@H](O)[C@H](C)O1` [DOXORUBICIN]: the IC50 in the data set on SMMC-7721 and in the data set on Hep 3B2 was 1.02 µM in each case.
Consider `Cc1c2ccncc2c(C)c2c1[nH]c1ccccc12` [ELLIPTECINE], for which the half-inhibitory concentration (IC50) was 9.85 µM in the data set with MCF7 [9]; 1.05 µM in the data set on HeLa [13]; 0.85 µM with A549 [14]; 1.05 µM with HepG2; 9.85 µM in the data set with HEp-2; 1.74 µM in the data set with A498. For the same molecule, the half-inhibitory concentration (IC50) with MCF7 [15] was found to be 1.05 µM; with MDA-MB-231 [16], 1.05 µM; with HeLa [10], 9.85 µM.
